From the kinase profiling compilation of Christmann-Franck et al. (2016)
One block for each compound: values may come before it.

Tests used:
Test in all cases: KINOMEscan competition binding
Details in all cases: compound 10.0 µM
AAK1 (human) = AAK1 (human) (UniProt Q2M2I8)
ACVR2A (human) = ACVR2A (human) (UniProt P27037)
ACVR2B (human) = ACVR2B (human) (UniProt Q13705)
BMP2K (human) = BMP2K (human) (UniProt Q9NSY1)
BMPR1B (human) = BMPR1B (human) (UniProt O00238)
CDK7 (human) = CDK7 (human) (UniProt P50613)
CHUK (human) = CHUK (human) (UniProt O15111)
CLK1 (human) = CLK1 (human) (UniProt P49759)
CLK2 (human) = CLK2 (human) (UniProt P49760)
CLK3 (human) = CLK3 (human) (UniProt P49761)
CLK4 (human) = CLK4 (human) (UniProt Q9HAZ1)
CSNK2A1 (human) = CSNK2A1 (human) (UniProt P68400)
CSNK2A2 (human) = CSNK2A2 (human) (UniProt P19784)
DAPK1 (human) = DAPK1 (human) (UniProt P53355)
Chain of DAPK1 (human) (P53355 whole entry, looked up): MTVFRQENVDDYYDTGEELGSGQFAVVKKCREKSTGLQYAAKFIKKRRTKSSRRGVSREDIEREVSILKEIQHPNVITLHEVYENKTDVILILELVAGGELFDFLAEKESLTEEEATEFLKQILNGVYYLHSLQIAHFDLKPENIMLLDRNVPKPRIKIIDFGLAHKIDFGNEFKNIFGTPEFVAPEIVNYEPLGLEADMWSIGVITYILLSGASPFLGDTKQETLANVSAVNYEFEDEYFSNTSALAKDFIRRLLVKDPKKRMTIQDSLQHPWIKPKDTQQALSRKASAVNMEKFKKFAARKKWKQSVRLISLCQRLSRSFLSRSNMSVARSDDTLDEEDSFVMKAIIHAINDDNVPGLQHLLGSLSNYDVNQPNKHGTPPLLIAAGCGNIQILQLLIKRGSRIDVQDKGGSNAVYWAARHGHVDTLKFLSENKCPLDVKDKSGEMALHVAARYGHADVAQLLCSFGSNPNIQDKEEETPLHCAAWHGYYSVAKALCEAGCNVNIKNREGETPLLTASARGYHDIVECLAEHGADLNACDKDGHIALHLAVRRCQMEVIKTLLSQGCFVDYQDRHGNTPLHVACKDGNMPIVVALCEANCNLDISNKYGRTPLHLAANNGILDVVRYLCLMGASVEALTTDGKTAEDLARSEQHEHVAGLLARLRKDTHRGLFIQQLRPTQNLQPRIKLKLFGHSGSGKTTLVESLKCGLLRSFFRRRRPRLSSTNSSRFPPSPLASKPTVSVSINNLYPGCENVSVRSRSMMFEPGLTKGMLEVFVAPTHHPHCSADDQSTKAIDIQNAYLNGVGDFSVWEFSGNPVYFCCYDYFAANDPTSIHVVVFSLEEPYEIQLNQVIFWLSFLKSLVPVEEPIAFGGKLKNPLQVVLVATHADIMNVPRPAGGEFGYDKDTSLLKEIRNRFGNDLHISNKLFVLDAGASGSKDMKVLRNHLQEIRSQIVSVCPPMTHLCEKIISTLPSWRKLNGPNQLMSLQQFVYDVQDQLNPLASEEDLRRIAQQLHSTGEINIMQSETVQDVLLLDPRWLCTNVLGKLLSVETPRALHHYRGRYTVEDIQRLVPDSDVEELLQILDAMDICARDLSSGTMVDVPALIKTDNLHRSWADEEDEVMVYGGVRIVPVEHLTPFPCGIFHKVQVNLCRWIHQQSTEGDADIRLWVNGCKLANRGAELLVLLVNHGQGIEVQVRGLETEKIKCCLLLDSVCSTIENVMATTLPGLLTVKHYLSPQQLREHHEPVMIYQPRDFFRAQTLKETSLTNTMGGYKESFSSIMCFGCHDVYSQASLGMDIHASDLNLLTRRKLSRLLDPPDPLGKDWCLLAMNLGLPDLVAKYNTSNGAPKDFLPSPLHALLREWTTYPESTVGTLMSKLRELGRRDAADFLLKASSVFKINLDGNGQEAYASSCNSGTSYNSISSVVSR

DAPK2 (human) = DAPK2 (human) (UniProt Q9UIK4)
DAPK3 (human) = DAPK3 (human) (UniProt O43293)
Chain of DAPK3 (human) (O43293 whole entry, looked up): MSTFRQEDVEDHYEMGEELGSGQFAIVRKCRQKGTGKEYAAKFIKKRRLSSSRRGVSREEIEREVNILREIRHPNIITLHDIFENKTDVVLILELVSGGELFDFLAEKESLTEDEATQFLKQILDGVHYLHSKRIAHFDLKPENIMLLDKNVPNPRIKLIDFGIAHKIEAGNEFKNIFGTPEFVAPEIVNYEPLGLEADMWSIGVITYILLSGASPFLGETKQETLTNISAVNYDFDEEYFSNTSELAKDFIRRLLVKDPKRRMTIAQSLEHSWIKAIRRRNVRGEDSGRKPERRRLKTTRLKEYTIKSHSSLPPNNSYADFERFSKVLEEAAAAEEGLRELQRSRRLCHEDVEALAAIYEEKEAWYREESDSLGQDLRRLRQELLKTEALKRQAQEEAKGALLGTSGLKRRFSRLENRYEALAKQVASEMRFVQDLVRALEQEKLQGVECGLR

DYRK1B (human) = DYRK1B (human) (UniProt Q9Y463)
HIPK1 (human) = HIPK1 (human) (UniProt Q86Z02)
MAP2K3 (human) = MAP2K3 (human) (UniProt P46734)
MAP2K4 (human) = MAP2K4 (human) (UniProt P45985)
MAPK15 (human) = MAPK15 (human) (UniProt Q8TD08)
MINK1 (human) = MINK1 (human) (UniProt Q8N4C8)
NEK2 (human) = NEK2 (human) (UniProt P51955)
PIM1 (human) = PIM1 (human) (UniProt P11309)
PIM2 (human) = PIM2 (human) (UniProt Q9P1W9)
Chain of PIM2 (human) (Q9P1W9 whole entry, looked up): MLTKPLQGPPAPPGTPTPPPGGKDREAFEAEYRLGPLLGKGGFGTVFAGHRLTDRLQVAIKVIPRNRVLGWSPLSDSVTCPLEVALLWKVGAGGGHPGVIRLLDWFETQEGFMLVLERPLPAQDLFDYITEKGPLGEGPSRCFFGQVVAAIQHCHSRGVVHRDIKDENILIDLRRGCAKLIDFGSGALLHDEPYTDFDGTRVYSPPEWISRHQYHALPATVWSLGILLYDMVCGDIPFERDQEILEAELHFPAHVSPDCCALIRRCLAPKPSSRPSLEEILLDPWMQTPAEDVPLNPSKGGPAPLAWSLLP

PIM3 (human) = PIM3 (human) (UniProt Q86V86)
PIP4K2B (human) = PIP4K2B (human) (UniProt P78356)
PLK4 (human) = PLK4 (human) (UniProt O00444)
RIOK1 (human) = RIOK1 (human) (UniProt Q9BRS2)
RIOK3 (human) = RIOK3 (human) (UniProt O14730)
RPS6KA4 KD2 (human) = RPS6KA4 KD2 (human) (UniProt O75676)
RPS6KA5 KD2 (human) = RPS6KA5 KD2 (human) (UniProt O75582)
SRPK3 (human) = SRPK3 (human) (UniProt Q9UPE1)
STK17A (human) = STK17A (human) (UniProt Q9UEE5)
STK17B (human) = STK17B (human) (UniProt O94768)
TAOK1 (human) = TAOK1 (human) (UniProt Q7L7X3)
TAOK3 (human) = TAOK3 (human) (UniProt Q9H2K8)
ALK (human) = ALK (human) (UniProt Q9UM73)
[1] = system: EGFR (human), P00533 [747-751 del / S ins]
[2] = system: EGFR (human), P00533 [752-759 del]
[3] = system: EGFR (human), P00533 [A750P; 747-749 del]
[4] = system: EGFR (human), P00533 [G719C; 746-750 del]
[5] = system: EGFR (human), P00533 [L858R]
[6] = system: EGFR (human), P00533 [L861Q]
[7] = system: EGFR (human), P00533 [P753S; 747-752 del]
GAK (human) = GAK (human) (UniProt O14976)
MYLK (human) = MYLK (human) (UniProt Q15746)
Chain of MYLK (human) (Q15746 whole entry, looked up): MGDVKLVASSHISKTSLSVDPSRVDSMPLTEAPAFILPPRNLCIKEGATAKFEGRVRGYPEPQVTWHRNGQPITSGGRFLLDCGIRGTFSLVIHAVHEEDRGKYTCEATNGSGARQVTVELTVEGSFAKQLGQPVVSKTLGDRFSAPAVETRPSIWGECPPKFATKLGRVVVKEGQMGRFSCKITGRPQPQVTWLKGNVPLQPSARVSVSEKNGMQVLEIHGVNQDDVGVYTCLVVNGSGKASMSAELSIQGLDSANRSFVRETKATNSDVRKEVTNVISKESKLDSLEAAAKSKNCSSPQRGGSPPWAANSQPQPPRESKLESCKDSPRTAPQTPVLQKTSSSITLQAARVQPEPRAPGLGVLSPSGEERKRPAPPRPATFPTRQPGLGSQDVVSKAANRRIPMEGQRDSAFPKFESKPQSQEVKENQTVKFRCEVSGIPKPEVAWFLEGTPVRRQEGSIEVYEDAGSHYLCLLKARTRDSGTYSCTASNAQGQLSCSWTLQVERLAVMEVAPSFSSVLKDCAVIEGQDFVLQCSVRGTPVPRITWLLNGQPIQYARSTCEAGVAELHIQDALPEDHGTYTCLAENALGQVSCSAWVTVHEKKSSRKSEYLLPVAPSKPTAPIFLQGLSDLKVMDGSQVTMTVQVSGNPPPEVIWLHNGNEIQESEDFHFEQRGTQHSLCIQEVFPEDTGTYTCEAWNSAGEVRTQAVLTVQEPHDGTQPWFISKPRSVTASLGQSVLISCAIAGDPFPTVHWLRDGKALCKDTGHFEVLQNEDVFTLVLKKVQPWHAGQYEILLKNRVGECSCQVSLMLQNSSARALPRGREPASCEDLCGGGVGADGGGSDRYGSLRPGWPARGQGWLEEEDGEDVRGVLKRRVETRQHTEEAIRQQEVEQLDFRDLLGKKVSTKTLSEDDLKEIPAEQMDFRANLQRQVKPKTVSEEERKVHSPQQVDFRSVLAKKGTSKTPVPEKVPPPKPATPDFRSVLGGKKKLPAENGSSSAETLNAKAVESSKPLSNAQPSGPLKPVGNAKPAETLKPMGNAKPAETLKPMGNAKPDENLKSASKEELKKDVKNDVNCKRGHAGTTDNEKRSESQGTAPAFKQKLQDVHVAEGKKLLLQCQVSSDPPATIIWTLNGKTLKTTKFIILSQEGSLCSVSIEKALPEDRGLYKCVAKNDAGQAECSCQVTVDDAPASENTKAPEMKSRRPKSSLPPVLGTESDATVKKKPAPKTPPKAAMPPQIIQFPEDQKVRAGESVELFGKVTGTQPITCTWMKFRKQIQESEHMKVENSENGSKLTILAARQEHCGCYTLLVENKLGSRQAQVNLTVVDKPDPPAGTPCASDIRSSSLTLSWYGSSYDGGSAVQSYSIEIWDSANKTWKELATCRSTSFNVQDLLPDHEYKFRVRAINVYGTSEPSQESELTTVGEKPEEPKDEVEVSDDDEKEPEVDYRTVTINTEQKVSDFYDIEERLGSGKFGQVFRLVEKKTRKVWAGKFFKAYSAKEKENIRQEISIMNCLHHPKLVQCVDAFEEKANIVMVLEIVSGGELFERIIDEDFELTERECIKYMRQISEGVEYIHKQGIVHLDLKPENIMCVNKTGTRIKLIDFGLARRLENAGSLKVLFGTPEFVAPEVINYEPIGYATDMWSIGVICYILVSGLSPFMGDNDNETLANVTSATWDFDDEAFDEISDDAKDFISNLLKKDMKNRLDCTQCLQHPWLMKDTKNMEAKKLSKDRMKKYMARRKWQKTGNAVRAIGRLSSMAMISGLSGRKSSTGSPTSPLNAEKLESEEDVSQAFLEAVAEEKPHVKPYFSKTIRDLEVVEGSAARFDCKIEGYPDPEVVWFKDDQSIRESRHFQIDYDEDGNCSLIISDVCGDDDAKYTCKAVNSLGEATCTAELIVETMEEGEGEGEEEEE

PLK1 (human) = PLK1 (human) (UniProt P53350)
PLK3 (human) = PLK3 (human) (UniProt Q9H4B4)
PTK2 (human) = PTK2 (human) (UniProt Q05397)
PTK2B (human) = PTK2B (human) (UniProt Q14289)
Chain of PTK2B (human) (Q14289 whole entry, looked up): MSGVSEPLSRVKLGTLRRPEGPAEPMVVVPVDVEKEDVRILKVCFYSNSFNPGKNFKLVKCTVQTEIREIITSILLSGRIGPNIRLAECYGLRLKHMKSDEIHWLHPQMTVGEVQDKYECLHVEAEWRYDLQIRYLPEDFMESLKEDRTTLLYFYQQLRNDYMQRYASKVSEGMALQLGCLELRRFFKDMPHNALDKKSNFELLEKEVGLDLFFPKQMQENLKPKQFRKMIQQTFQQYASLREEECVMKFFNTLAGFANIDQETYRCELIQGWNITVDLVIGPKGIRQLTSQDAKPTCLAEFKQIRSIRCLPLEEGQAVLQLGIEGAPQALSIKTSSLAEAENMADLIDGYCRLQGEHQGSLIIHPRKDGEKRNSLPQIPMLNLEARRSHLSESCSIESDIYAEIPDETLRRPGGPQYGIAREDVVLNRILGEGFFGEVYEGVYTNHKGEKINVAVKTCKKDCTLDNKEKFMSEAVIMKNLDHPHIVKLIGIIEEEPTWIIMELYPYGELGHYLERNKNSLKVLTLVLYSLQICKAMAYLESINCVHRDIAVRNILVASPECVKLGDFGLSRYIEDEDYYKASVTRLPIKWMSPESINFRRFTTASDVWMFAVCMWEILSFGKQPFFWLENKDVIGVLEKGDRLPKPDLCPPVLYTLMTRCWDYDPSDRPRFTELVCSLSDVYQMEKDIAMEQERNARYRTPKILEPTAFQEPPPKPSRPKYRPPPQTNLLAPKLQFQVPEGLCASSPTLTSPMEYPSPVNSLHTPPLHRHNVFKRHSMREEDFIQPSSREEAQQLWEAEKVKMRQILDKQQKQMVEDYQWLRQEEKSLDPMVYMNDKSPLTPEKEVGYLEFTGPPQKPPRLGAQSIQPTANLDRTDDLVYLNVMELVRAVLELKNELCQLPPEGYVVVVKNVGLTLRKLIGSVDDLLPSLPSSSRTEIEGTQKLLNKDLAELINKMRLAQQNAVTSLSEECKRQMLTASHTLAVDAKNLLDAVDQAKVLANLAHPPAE

RPS6KA1 KD2 (human) = RPS6KA1 KD2 (human) (UniProt Q15418)
RPS6KA2 KD2 (human) = RPS6KA2 KD2 (human) (UniProt Q15349)
SLK (human) = SLK (human) (UniProt Q9H2G2)
STK33 (human) = STK33 (human) (UniProt Q9BYT3)
TTK (human) = TTK (human) (UniProt P33981)
CAMKK2 (human) = CAMKK2 (human) (UniProt Q96RR4)
DCLK1 (human) = DCLK1 (human) (UniProt O15075)
DCLK2 (human) = DCLK2 (human) (UniProt Q8N568)
FER (human) = FER (human) (UniProt P16591)
INSRR (human) = INSRR (human) (UniProt P14616)
PRKD1 (human) = PRKD1 (human) (UniProt Q15139)
PRKD2 (human) = PRKD2 (human) (UniProt Q9BZL6)
PRKD3 (human) = PRKD3 (human) (UniProt O94806)
RPS6KA6 KD2 (human) = RPS6KA6 KD2 (human) (UniProt Q9UK32)
ULK1 (human) = ULK1 (human) (UniProt O75385)
ULK2 (human) = ULK2 (human) (UniProt Q8IYT8)
PIK3CB (human) = PIK3CB (human) (UniProt P42338)
[8] = molecular target: TYK2 JH2 pseudokinase (human) (UniProt P29597)
ZAP70 (human) = ZAP70 (human) (UniProt P43403)

kinase still bound, per cent of control (AAK1 (human)): 13% | kinase still bound, per cent of control (ACVR2A (human)): 25% | kinase still bound, per cent of control (ACVR2B (human)): 16% | kinase still bound, per cent of control (BMP2K (human)): 13% | kinase still bound, per cent of control (BMPR1B (human)): 5.7% | kinase still bound, per cent of control (CDK7 (human)): 26% | kinase still bound, per cent of control (CHUK (human)): 18% | kinase still bound, per cent of control (CLK1 (human)): 16% | kinase still bound, per cent of control (CLK2 (human)): 5.1% | kinase still bound, per cent of control (CLK3 (human)): 3.5% | kinase still bound, per cent of control (CLK4 (human)): 28% | kinase still bound, per cent of control (CSNK2A1 (human)): 26% | kinase still bound, per cent of control (CSNK2A2 (human)): 25% | kinase still bound, per cent of control (DAPK1 (human)): 12% | kinase still bound, per cent of control (DAPK2 (human)): 5.2% | kinase still bound, per cent of control (DAPK3 (human)): 9.4% | kinase still bound, per cent of control (DYRK1B (human)): 23% | kinase still bound, per cent of control (HIPK1 (human)): 16% | kinase still bound, per cent of control (MAP2K3 (human)): 2.2% | kinase still bound, per cent of control (MAP2K4 (human)): 24% | kinase still bound, per cent of control (MINK1 (human)): 24% | kinase still bound, per cent of control (NEK2 (human)): 30% | kinase still bound, per cent of control (PIM1 (human)): 16% | kinase still bound, per cent of control (PIM2 (human)): 4.8% | kinase still bound, per cent of control (PIM3 (human)): 12% | kinase still bound, per cent of control (PIP4K2B (human)): 22% | kinase still bound, per cent of control (PLK4 (human)): 24% | kinase still bound, per cent of control (RIOK1 (human)): 31% | kinase still bound, per cent of control (RIOK3 (human)): 17% | kinase still bound, per cent of control (RPS6KA4 KD2 (human)): 0.9% | kinase still bound, per cent of control (RPS6KA5 KD2 (human)): 2.2% | kinase still bound, per cent of control (SRPK3 (human)): 33% | kinase still bound, per cent of control (STK17A (human)): 23% | kinase still bound, per cent of control (STK17B (human)): 28% | kinase still bound, per cent of control (TAOK1 (human)): 4.2% | kinase still bound, per cent of control (TAOK3 (human)): 22%
SMILES: N=C1NC(=O)/C(=C/c2c[nH]c(=O)c(-c3ccc(S(N)(=O)=O)cc3)c2)S1
kinase still bound, per cent of control (MAPK15 (human)): 3.3%

kinase still bound, per cent of control (ALK (human)): 22% | kinase still bound, per cent of control [1]: 28% | kinase still bound, per cent of control [2]: 33% | kinase still bound, per cent of control [3]: 19% | kinase still bound, per cent of control [4]: 23% | kinase still bound, per cent of control [5]: 22% | kinase still bound, per cent of control [6]: 28% | kinase still bound, per cent of control [7]: 31% | kinase still bound, per cent of control (GAK (human)): 6.4% | kinase still bound, per cent of control (MYLK (human)): 31% | kinase still bound, per cent of control (PLK1 (human)): 1.9% | kinase still bound, per cent of control (PLK3 (human)): 6.5% | kinase still bound, per cent of control (PTK2 (human)): 34% | kinase still bound, per cent of control (PTK2B (human)): 17% | kinase still bound, per cent of control (RPS6KA1 KD2 (human)): 32% | kinase still bound, per cent of control (RPS6KA2 KD2 (human)): 32% | kinase still bound, per cent of control (SLK (human)): 22% | kinase still bound, per cent of control (STK33 (human)): 13% | kinase still bound, per cent of control (TTK (human)): 5.2%
SMILES: COc1cc(C(=O)NC2CCN(C)CC2)ccc1Nc1ncc2c(n1)N(CCc1ccccc1)CCC(=O)N2C

kinase still bound, per cent of control (ALK (human)): 6.6% | kinase still bound, per cent of control (CAMKK2 (human)): 24% | kinase still bound, per cent of control (DCLK1 (human)): 1.4% | kinase still bound, per cent of control (DCLK2 (human)): 4.5% | kinase still bound, per cent of control (FER (human)): 25% | kinase still bound, per cent of control (GAK (human)): 1.2% | kinase still bound, per cent of control (INSRR (human)): 33% | kinase still bound, per cent of control (MINK1 (human)): 31% | kinase still bound, per cent of control (MYLK (human)): 7.6% | kinase still bound, per cent of control (PLK1 (human)): 9% | kinase still bound, per cent of control (PLK3 (human)): 20% | kinase still bound, per cent of control (PRKD1 (human)): 24% | kinase still bound, per cent of control (PRKD2 (human)): 29% | kinase still bound, per cent of control (PRKD3 (human)): 14% | kinase still bound, per cent of control (PTK2 (human)): 0.95% | kinase still bound, per cent of control (PTK2B (human)): 4.6% | kinase still bound, per cent of control (RPS6KA2 KD2 (human)): 12% | kinase still bound, per cent of control (RPS6KA6 KD2 (human)): 16% | kinase still bound, per cent of control (SLK (human)): 3.6% | kinase still bound, per cent of control (STK33 (human)): 5.4% | kinase still bound, per cent of control (TTK (human)): 1.4% | kinase still bound, per cent of control (ULK1 (human)): 19% | kinase still bound, per cent of control (ULK2 (human)): 1.3%
SMILES: COc1cc(N2CCN(C)CC2)ccc1Nc1ncc2c(n1)N(C1CCCC1)C(C)CC(=O)N2C (centres undefined)

kinase still bound, per cent of control (DAPK1 (human)): 4.4% | kinase still bound, per cent of control (DAPK2 (human)): 10% | kinase still bound, per cent of control (DAPK3 (human)): 10% | kinase still bound, per cent of control (PIK3CB (human)): 6.2% | kinase still bound, per cent of control (PIM2 (human)): 14% | kinase still bound, per cent of control (PIM3 (human)): 30% | kinase still bound, per cent of control (RPS6KA4 KD2 (human)): 3.2% | kinase still bound, per cent of control (STK17B (human)): 18% | kinase still bound, per cent of control [8]: 14% | kinase still bound, per cent of control (ZAP70 (human)): 11%
SMILES: O=C1NC(=O)/C(=C/c2cc(-c3ccc(N4CCNCC4)nc3)c[nH]c2=O)S1
